Test results reported in patent US12466834B2, “Imidazodiazepinediones and methods of use thereof” (GFB (ABC), LLC, priority 2018, dated 2025).

Key:
Format in all cases: cell-based
human TRPC5 [1] = biological target: T1, human TRPC5 (Homo sapiens, UniProt Q9UL62); experiment: FLIPR calcium assay, compound activation (agonism) of TRPC5 calcium response; design: key to Agonist Potency Range (FLIPR): A=0.001-1 μM; B=1-10 μM; C=>1 μM; D=tested with a positive result for agonism, but EC50 not calculated; conditions: ICLN-1633 cells, Fluo-4 calcium response; for EC50: read-out: Agonist Potency Range (FLIPR)
T1 construct: expressed in transfected cells
T1 sequence (Q9UL62 1-973): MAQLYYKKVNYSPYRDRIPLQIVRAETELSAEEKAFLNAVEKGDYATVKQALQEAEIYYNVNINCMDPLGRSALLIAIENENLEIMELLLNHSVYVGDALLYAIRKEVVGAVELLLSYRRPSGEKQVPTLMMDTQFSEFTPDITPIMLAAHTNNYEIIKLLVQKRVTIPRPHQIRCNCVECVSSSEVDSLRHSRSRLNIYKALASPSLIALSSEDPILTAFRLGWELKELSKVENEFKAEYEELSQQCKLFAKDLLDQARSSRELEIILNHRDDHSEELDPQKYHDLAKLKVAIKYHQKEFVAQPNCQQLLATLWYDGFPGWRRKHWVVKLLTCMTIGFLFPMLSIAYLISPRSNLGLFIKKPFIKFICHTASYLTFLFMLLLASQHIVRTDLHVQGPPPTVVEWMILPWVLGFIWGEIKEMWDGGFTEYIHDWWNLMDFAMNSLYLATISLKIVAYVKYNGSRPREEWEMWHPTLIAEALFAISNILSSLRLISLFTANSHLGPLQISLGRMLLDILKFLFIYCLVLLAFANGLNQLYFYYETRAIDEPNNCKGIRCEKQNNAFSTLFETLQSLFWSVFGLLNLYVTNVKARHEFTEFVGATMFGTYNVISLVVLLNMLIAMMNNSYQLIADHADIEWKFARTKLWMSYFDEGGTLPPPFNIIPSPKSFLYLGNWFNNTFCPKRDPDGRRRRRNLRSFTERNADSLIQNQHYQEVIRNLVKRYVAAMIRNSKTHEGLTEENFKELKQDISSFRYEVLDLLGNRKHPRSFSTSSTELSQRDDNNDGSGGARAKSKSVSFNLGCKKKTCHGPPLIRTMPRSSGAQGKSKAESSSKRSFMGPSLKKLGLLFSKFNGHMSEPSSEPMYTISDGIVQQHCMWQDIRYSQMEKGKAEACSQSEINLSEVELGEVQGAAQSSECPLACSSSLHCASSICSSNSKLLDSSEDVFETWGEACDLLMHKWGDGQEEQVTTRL
Method: (§1) ICLN-1633 cells (HEK-TREx hTRPC5) expressing TRPC5 were generated as follows. Commercially available HekTrex-293 cells were seeded at 0.7×10^6 cells/well in a 1×6-well plate 24 hrs prior to transfection using 2 mL cell growth media containing no antibiotics (1× DMEM/high glucose (Hyclone #SH30022.02); 10% fetal bovine serum (Sigma) 2 mM sodium pyruvate, 10 mM HEPES). The human TRPC5 coding sequence (NM_012471 with a silent T478C mutation) was cloned into pcDNA5/TO (Invitrogen; Cat No. V103320) using hygromycin as the resistance gene and the plasmid (SEQ ID NO:1) propagated using T-Rex-293 cells (Invitrogen; Cat No. R71007) following manufacturer's directions. On day 2, 2 μg of plasmid DNA plus 6 μl of Xtreme-GENE HP reagent in Optimem (200 μl total volume) was prepared and incubated for 15 min at room temperature. This plasmid solution was then gently overlayed dropwise onto each well and the plate was gently swirled to mix complex with the media for approximately 30 seconds. Transfected cells were incubated at 37° C. in a 10% CO2 incubator for 24 hrs. The transfected cells were harvested and transferred into 2×150 mm dishes containing cell growth media with no antibiotics at 37° C.
(§2) Compounds were made up to, or supplied as a 10 mM stock solution generally using DMSO as the vehicle. 10-point dose response curves were generated using the Echo-550 acoustic dispenser. Compound source plates were made by serially diluting compound stocks to create 10 mM, 1 mM, and 0.1 mM solutions in DMSO into Echo certified LDV plates. The Echo then serially spotted 100% DMSO stock solutions into source dose response plates to generate a 4-fold dilution scheme. 100% DMSO was added to the spotted dose response plates to bring the final volume to 5 μl. 300 nl of the dose response stock plate was then spotted into pre-incubation and stimulation assay plates. 50 μl of pre-incubation buffer and 100 μl of stimulation buffer was then added to the plates resulting in a final assay test concentration range of 30 μM to 0.0001 μM with a final DMSO concentration of 0.3%.
(§3) Human ICLN-1633 cells expressing were plated onto 384 well, black poly-D-lysine-coated microplates and maintained in TRPC5 growth media the day prior to use for experiments. TRPC5 expression was induced by the application of 1 μg/mL tetracycline at the time of plating. Media was removed from the plates and 10 μl of 4 μM of Fluo-4 AM (mixed with equal volume of Pluronic F-127) in Earls's Balanced Salt Solution (EBSS) was added to the cells. Cells were incubated at room temperature, protected from light, for 60-90 minutes. After the incubation period, the dye was removed and replaced with 10 μl of EBSS. Cell, pre-incubation and stimulation plates were loaded onto the FLIPR-II and the assay was initiated. The FLIPR measured a 10 second baseline and then added 10 μl of 2× compounds (or controls). Changes in fluorescence were monitored for an additional 5 minutes. After the 5 minute pre-incubation, 20 μl of 2× riluzole (with 1× compound or controls) was added to the cell plate. The final riluzole stimulation concentration in the assay was 30 μM. After the riluzole addition, changes in fluorescence were monitored for an additional 5 minutes. Reduction in the riluzole-activated calcium response relative to control wells was reported as inhibition. A compound-mediated increase in the riluzole response relative to control riluzole response (no test agent present) with no enhancement of calcium entry during preincubation phase was reported as an agonist response.
Compound activation (agonism) of TRPC5 calcium response was determined as follows. After the initial compound addition, fluorescence was monitored for 5 minutes. The maximum relative fluorescence response (minus the control response of EBSS buffer alone) is captured and exported from the FLIPR. Compound activation is calculated using the following formula: […]

human TRPC5 [2] = biological target: T1, human TRPC5; experiment: FLIPR calcium assay, inhibition of riluzole-activated TRPC5 calcium response; conditions: ICLN-1633 cells; riluzole 30 μM stimulation; Fluo-4 calcium response; read-out: Inhibitor Potency Range (FLIPR)
Method: as §1, §2, §3
Compound inhibition of TRPC5 calcium response was determined as follows. After the riluzole addition, fluorescence was monitored for a 5-minute period. For inhibition, the maximum relative fluorescence response (minus the control response of 1 μM of an internal control compound known to maximally block TRPC5 calcium response, the “REF INHIB” in the formula below) was captured and exported from the FLIPR. […]

human TRPC5 [3] = biological target: T1, human TRPC5; experiment: Automated patch clamp assay (QPatch), antagonist mode; conditions: HEK-TREx hTRPC5 cells; channel activated with Rosiglitazone 30 μM; normalised to ML-204 block; read-out: Qpatch Potency Range
Method: as §1
The next day selection was initiated to generate a stable pool by adding cell growth media containing 150 μg/mL Hygromycin and 5 μg/mL Blasticidin and cells were allowed to grow. Media with the selection agent was changed every 1-2 days as needed to remove dead cells. After 7 days, the hygromycin concentration was reduced to 75 μg/mL and cells growth was allowed to continue.
Single clones were selected as follows. The stable pool was diluted to 10 cells/mL and seeded (100 μl/well) into 24×96 well plates (˜1 cell/well) and allowed to grow for 7 days in cell growth media. Fresh media (100 μl) was added and the cells allowed to grow for another 1-2 weeks and then stored frozen or used immediately.
The automated electrophysiological assay was carried out at room temperature. On the day of the experiment, TRPC5 cells were cultured according to our Standard Operating Procedure. Briefly, cells were harvested using TrypLE™ Express, re-suspended in serum free medium, added to the automated platform and used within 0.5-3 hours. Internal and external physiological solutions were freshly prepared prior to the assay. The external solution contained: 145 mM NaCl, 4 mM KCl, 2 mM CaCl2, 1 mM MgCl2, 10 mM HEPES, 10 mM glucose, pH 7.4 with NaOH and 310 mOsm/L. The internal solution contained 120 mM L-aspartic acid, 120 mM CsOH·H2O, 20 mM CsCl, 2 mM MgCl2, 8.8 mM CaCl2, 10 mM EGTA, 10 mM HEPES and 2 mM Na2ATP; pH 7.2 with CsOH and 330 mOsm/L. The free internal Ca^2+ concentration was buffered to 1 μM, according to the WCabuf software. The automated electrophysiological platform QPatch 16 from Sophion (Denmark) was used to carry out the compounds profiling. The series resistance and quality of seals were continuously monitored during the experiments. Data were analyzed using Sophion QPatch assay software 5.6 (Odense). Data were normalized using the maximum activation obtained during the pre-compound agonist application as the top value (1.0) and maximum inhibition induced by ML-204 as the bottom value (0.0). IC50 values were calculated using a least squares regression algorithm (Hill equation).
To monitor the ion currents, a voltage ramp from −100 mV to +100 mV, over 300 ms, was applied every 10 seconds, from a holding potential of −60 mV. Antagonist-mode: After recording for a minimum of 60 seconds control period, the EC60 concentration of the TRPC5 agonist, Rosiglitazone (30 μM), was applied to activate the channel. After reaching steady-state, co-application of increasing concentrations of test compound were applied followed by two applications of Rosiglitazone EC60 and a saturating concentration of the specific blocker ML-204 (100 μM).

Row | EC50 (human TRPC5 [1]) [µM] | IC50 (human TRPC5 [2]) [µM] | Agonist Potency Range (FLIPR) (human TRPC5 [1]) | IC50 (human TRPC5 [3]) [µM] | Structure (SMILES)
1 | 0.001 to 1 | > 10 |  |  | O=C1c2c(nc(Oc3cccc(F)c3)n2Cc2ccc(Cl)cc2)N2CCC[C@@H]2C(=O)N1CCCO [Compound 27]
2 |  | > 10 | D |  | CCCCn1c(Oc2cccc(F)c2)nc2c1C(=O)N(CCCO)C(=O)[C@H]1CCCN21 (single isomer, unassigned) [Compound 25]
3 | 1 to 10 | > 10 |  |  | CCCOc1nc2c(n1Cc1ccc(Cl)cc1)C(=O)N(CCCO)C(=O)[C@H]1CCCN21 [Compound 30]
4 | 1 to 10 | > 10 |  |  | CC(C)Oc1nc2c(n1Cc1ccc(Cl)cc1)C(=O)N(CCCO)C(=O)[C@H]1CCCN21 [Compound 29]
5 | 0.001 to 1 | > 10 |  |  | CCCOc1nc2c(n1Cc1ccc(Cl)cc1)C(=O)N(CCCO)C(=O)[C@@H]1CCCN21 [Compound 31]
6 |  | 1 to 10 |  | > 30 | CN1C(=O)CN(CC(F)(F)CO)C(=O)c2c1nc(Oc1cccc(OC(F)(F)F)c1)n2Cc1ccc(Cl)cc1 [Compound 11]
7 | 0.001 to 1 | > 10 |  |  | CC(C)Oc1nc2c(n1Cc1ccc(Cl)cc1)C(=O)N(CCCO)C(=O)[C@@H]1CCCN21 [Compound 28]
8 |  | 0.001 to 1 |  | 0.001 to 1 | CCCCn1c(Oc2cccc(F)c2)nc2c1C(=O)N(CCCO)C(=O)[C@@H]1CCCN21 (single isomer, unassigned) [Compound 24]
9 |  | > 10 |  | > 30 | C[C@H](c1ccc(Cl)cc1)n1c(Oc2cccc(F)c2)nc2c1C(=O)N(CCCO)CC(=O)N2C (single isomer, unassigned) [Compound 6]
